Measurements from PMC8550792, “Evolution of kinase polypharmacology across HSP90 drug discovery” (Cell Chemical Biology, 2021).
Where two headings read alike, the source gives them in different places. One block for each compound: values may come before it.

Tests used:
382 unique human kinases [1] = assay: biochemical; type: biochemical; conditions: cutoff of >85% inhibition at 10 μM; luminespib and ganetespib large kinome panel, others 16-kinase panel
[2] = known interaction (K) listed by CLARITY, cited from earlier work
HSP90AB1 = test system: HSP90AB1; design: method as in ChEMBL23 (accessed: 23/08/2018); conditions: average of reported values; ref ChEMBL23 (accessed: 23/08/2018); cited from earlier work
ABL2/ARG = molecular target: T1, ABL2/ARG (Homo sapiens, UniProt P42684); assay: HotSpot in vitro kinase radiometric assay; type: biochemical; conditions: 10uM, ATP 30 uM, Data 1, Data 2
T1 construct: purchased Reaction Biology (HotSpot contract assay)

ABL1 = ABL1 (Homo sapiens, UniProt P00519); assay: HotSpot in vitro kinase radiometric assay; type: biochemical; design: purchased Reaction Biology (HotSpot contract assay); conditions: 10uM, ATP 40 uM, Data 1, Data 2
PASK = molecular target: T2, PASK (Homo sapiens, UniProt Q96RG2); assay: HotSpot in vitro kinase radiometric assay; type: biochemical; conditions: 10uM, ATP 50 uM, Data 1, Data 2
T2 construct: purchased Reaction Biology (HotSpot contract assay)
From the text: (§1) Accordingly, we selected five additional representative HSP90 inhibitors, at least one from each chemical class, including both synthetic inhibitors and natural products.
(§2) Accordingly, we screened the hit compound and the two leads for kinase off-target inhibition using the 16-kinase panel and the same in vitro catalytic assay used previously.
(§3) This radioisotope binding assay was designed to directly detect the true product without the use of modified substrates, coupling enzymes, or detection antibodies thus enabling to directly measure inhibition of catalytic activity. Test or control compounds were incubated with kinase, substrate, cofactors, and radioisotope-labeled ATP (32P-ɣ-ATP or 33P-ɣ-ATP). The reaction mixtures were then spotted onto filter papers, which bind the radioisotope-labeled catalytic product.

TRKA = molecular target: T3, TRKA (Homo sapiens, UniProt P04629); assay: HotSpot in vitro kinase radiometric assay; type: biochemical; conditions: 10uM, ATP 100 uM, Data 1, Data 2
T3 construct: purchased Reaction Biology (HotSpot contract assay)
From the text: as §1, §2, §3

FYN = molecular target: T4, FYN (Homo sapiens, UniProt P06241); assay: HotSpot in vitro kinase radiometric assay; type: biochemical; conditions: 10uM, ATP 30 uM, Data 1, Data 2
T4 construct: purchased Reaction Biology (HotSpot contract assay)

TRAP1 = test system: TRAP1; design: method as in ChEMBL23 (accessed: 23/08/2018); conditions: average of reported values; ref ChEMBL23 (accessed: 23/08/2018); cited from earlier work
YES/YES1 = molecular target: T5, YES/YES1 (Homo sapiens, UniProt P07947); assay: HotSpot in vitro kinase radiometric assay; type: biochemical; conditions: 10uM, ATP 50 uM, Data 1, Data 2
T5 construct: purchased Reaction Biology (HotSpot contract assay)

FGR = molecular target: T6, FGR (Homo sapiens, UniProt P09769); assay: HotSpot in vitro kinase radiometric assay; type: biochemical; conditions: 10uM, ATP 50 uM, Data 1, Data 2
T6 construct: purchased Reaction Biology (HotSpot contract assay)

c-Src = molecular target: T7, c-Src (Homo sapiens, UniProt P12931); assay: HotSpot in vitro kinase radiometric assay; type: biochemical; conditions: 10uM, ATP 15 uM, Data 1, Data 2
T7 construct: purchased Reaction Biology (HotSpot contract assay)
Experimental: (§4) Accordingly, we selected five additional representative HSP90 inhibitors, at least one from each chemical class, including both synthetic inhibitors and natural products. […]
as §3

PDK2/PDHK2 = molecular target: T8, PDK2/PDHK2 (Homo sapiens, UniProt Q15119); assay: HotSpot in vitro kinase radiometric assay; type: biochemical; conditions: 10uM, ATP 15 uM, Data 1, Data 2
T8 construct: purchased Reaction Biology (HotSpot contract assay)
Experimental: as §4, §3

BLK = molecular target: T9, BLK (Homo sapiens, UniProt P51451); assay: HotSpot in vitro kinase radiometric assay; type: biochemical; conditions: 10uM, ATP 10 uM, Data 1, Data 2
T9 construct: purchased Reaction Biology (HotSpot contract assay)
Experimental: as §4, §3

LYN B = molecular target: T10, LYN B (Homo sapiens, UniProt P07948); assay: HotSpot in vitro kinase radiometric assay; type: biochemical; conditions: 10uM, ATP 20 uM, Data 1, Data 2
T10 construct: purchased Reaction Biology (HotSpot contract assay)
Experimental: as §4, §3

PDK4/PDKH4 = molecular target: T11, PDK4/PDKH4 (Homo sapiens, UniProt Q16654); assay: HotSpot in vitro kinase radiometric assay; type: biochemical; conditions: 10uM, ATP 30 uM, Data 1, Data 2
T11 construct: purchased Reaction Biology (HotSpot contract assay)
Experimental: as §4, §3

TRKC = molecular target: T12, TRKC (Homo sapiens, UniProt Q16288); assay: HotSpot in vitro kinase radiometric assay; type: biochemical; conditions: 10uM, ATP 100 uM, Data 1, Data 2
T12 construct: purchased Reaction Biology (HotSpot contract assay)

DDR1 = DDR1 (Homo sapiens, UniProt Q08345); assay: HotSpot in vitro kinase radiometric assay; type: biochemical; design: purchased Reaction Biology (HotSpot contract assay); conditions: 10uM, ATP 100 uM, Data 1, Data 2
PEAK1 = molecular target: T13, PEAK1 (Homo sapiens, UniProt Q9H792); assay: HotSpot in vitro kinase radiometric assay; type: biochemical; conditions: 10uM, ATP 30 uM, Data 1, Data 2
T13 construct: purchased Reaction Biology (HotSpot contract assay)

LCK = molecular target: T14, LCK (Homo sapiens, UniProt P06239); assay: HotSpot in vitro kinase radiometric assay; type: biochemical; conditions: 10uM, ATP 15 uM, Data 1, Data 2
T14 construct: purchased Reaction Biology (HotSpot contract assay)

16-kinase panel = 16-kinase panel screening, in vitro radiometric assay; type: biochemical, human; conditions: 10 μM
HSP90AA1 = conditions: average of reported values; ref ChEMBL23 (accessed: 23/08/2018); cited from earlier work
382 unique human kinases [3] = molecular target: T15, 382 unique human kinases (Homo sapiens, UniProt Q9BQI3); assay: biochemical; type: biochemical; conditions: EIF2AK1; read-out: Control Compound IC50*
T15 construct: purchased Reaction Biology (HotSpot contract assay)

382 unique human kinases [4] = molecular target: T16, 382 unique human kinases (Homo sapiens, UniProt P37173); assay: biochemical; type: biochemical; conditions: kinase TGFBR2; read-out: Control Compound IC50*
T16 construct: purchased Reaction Biology (HotSpot contract assay)

382 unique human kinases [5] = molecular target: T17, 382 unique human kinases (Homo sapiens, UniProt Q96QT4); assay: biochemical; type: biochemical; conditions: kinase TRPM7/CHAK1; read-out: Control Compound IC50*
T17 construct: purchased Reaction Biology (HotSpot contract assay)

T2 sequence (Q96RG2 whole entry): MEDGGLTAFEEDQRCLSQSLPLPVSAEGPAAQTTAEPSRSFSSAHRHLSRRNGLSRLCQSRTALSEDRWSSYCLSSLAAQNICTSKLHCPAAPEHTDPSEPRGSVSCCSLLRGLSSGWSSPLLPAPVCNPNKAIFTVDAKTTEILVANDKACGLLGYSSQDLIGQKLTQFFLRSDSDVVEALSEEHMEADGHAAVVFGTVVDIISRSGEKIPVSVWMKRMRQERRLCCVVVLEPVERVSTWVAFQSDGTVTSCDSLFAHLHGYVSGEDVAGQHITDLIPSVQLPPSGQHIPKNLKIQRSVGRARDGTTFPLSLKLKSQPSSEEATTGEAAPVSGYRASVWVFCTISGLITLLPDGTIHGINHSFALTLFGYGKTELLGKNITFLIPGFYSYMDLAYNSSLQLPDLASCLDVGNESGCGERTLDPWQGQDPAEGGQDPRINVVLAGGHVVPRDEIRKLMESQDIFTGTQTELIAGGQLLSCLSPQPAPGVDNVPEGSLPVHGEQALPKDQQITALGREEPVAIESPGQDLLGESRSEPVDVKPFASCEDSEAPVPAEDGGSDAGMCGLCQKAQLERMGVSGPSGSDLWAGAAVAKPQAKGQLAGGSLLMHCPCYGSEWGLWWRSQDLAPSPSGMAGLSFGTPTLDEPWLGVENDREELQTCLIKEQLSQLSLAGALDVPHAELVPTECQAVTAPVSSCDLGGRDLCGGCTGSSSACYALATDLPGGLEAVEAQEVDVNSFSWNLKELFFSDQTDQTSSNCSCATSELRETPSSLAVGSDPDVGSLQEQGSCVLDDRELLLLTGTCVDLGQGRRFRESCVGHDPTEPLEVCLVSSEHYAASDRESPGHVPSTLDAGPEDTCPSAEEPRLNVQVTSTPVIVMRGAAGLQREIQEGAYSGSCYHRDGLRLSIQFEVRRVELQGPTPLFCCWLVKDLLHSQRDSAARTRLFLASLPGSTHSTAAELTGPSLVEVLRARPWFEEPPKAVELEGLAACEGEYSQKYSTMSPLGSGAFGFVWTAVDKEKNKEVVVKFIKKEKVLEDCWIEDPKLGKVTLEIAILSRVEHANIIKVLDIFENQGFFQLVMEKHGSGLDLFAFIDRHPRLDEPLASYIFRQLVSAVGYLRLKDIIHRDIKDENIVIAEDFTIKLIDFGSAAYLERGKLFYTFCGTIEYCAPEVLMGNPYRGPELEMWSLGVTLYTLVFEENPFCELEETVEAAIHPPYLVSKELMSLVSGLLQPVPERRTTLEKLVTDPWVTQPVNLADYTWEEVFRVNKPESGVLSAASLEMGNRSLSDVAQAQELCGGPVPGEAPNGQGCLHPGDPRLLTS
T5 sequence (P07947 whole entry): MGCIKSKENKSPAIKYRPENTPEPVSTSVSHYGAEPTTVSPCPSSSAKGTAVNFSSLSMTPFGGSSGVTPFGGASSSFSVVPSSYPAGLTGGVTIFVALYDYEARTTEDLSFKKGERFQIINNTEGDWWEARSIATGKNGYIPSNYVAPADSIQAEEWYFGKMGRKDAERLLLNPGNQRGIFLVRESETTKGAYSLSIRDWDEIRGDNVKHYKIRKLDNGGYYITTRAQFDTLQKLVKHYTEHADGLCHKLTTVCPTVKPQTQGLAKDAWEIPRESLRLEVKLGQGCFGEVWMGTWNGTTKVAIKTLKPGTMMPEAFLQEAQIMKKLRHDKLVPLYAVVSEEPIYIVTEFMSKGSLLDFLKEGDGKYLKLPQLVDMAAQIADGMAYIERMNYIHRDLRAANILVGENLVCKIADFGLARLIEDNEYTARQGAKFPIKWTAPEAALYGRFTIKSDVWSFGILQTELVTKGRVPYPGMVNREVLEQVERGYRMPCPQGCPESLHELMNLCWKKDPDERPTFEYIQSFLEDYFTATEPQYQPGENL
T11 sequence (Q16654 whole entry): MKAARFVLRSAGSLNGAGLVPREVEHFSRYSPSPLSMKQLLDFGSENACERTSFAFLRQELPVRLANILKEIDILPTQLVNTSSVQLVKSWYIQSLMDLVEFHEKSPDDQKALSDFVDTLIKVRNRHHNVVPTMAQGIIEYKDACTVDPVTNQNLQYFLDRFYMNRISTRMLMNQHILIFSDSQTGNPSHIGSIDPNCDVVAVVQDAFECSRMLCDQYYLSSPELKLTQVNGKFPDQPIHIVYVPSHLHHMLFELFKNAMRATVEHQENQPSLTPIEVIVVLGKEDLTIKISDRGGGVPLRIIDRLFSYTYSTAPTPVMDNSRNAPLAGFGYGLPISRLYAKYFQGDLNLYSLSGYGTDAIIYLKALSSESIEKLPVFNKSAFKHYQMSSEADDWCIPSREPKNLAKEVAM
T1 sequence (P42684 whole entry): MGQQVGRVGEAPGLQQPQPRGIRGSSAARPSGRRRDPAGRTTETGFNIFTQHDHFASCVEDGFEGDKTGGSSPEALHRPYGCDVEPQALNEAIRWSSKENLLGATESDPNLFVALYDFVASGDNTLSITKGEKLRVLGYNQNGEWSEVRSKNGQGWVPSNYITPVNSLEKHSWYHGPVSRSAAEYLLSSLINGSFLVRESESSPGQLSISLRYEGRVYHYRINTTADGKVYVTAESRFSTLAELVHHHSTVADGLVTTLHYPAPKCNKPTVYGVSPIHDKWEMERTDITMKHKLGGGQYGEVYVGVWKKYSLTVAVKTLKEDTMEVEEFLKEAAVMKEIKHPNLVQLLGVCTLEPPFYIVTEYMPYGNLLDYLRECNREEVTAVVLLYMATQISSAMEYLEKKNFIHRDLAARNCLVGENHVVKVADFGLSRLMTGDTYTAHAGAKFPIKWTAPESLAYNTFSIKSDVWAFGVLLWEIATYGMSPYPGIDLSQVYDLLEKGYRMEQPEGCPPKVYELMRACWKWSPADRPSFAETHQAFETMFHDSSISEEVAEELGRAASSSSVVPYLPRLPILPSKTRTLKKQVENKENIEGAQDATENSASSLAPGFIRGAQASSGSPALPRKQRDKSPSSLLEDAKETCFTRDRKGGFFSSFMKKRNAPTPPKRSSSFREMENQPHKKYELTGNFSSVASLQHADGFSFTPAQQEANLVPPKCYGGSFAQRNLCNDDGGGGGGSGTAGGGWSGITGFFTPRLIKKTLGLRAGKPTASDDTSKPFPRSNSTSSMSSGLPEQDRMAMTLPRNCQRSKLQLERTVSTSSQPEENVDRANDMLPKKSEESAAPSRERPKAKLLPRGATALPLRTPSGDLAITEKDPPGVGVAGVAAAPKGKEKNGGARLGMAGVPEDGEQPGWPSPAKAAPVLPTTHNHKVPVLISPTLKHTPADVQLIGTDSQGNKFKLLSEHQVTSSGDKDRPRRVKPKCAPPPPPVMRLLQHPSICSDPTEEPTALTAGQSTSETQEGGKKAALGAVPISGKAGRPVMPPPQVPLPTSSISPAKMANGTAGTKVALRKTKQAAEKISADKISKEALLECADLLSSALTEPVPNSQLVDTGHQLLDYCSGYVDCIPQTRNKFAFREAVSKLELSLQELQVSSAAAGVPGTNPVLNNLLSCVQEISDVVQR
T9 sequence (P51451 whole entry): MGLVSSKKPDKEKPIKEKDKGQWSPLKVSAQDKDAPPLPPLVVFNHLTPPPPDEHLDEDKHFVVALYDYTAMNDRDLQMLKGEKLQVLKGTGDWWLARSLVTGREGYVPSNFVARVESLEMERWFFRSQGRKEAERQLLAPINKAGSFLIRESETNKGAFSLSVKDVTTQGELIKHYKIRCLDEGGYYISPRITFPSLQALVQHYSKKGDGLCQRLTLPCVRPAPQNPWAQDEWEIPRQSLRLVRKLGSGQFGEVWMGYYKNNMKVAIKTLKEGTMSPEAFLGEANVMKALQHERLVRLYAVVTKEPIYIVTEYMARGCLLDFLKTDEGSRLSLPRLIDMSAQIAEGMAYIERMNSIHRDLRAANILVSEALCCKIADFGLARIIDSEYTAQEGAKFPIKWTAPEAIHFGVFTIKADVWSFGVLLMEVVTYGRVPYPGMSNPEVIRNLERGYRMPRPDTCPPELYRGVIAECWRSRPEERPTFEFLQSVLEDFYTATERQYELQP
Chain of ABL1 (P00519 whole entry): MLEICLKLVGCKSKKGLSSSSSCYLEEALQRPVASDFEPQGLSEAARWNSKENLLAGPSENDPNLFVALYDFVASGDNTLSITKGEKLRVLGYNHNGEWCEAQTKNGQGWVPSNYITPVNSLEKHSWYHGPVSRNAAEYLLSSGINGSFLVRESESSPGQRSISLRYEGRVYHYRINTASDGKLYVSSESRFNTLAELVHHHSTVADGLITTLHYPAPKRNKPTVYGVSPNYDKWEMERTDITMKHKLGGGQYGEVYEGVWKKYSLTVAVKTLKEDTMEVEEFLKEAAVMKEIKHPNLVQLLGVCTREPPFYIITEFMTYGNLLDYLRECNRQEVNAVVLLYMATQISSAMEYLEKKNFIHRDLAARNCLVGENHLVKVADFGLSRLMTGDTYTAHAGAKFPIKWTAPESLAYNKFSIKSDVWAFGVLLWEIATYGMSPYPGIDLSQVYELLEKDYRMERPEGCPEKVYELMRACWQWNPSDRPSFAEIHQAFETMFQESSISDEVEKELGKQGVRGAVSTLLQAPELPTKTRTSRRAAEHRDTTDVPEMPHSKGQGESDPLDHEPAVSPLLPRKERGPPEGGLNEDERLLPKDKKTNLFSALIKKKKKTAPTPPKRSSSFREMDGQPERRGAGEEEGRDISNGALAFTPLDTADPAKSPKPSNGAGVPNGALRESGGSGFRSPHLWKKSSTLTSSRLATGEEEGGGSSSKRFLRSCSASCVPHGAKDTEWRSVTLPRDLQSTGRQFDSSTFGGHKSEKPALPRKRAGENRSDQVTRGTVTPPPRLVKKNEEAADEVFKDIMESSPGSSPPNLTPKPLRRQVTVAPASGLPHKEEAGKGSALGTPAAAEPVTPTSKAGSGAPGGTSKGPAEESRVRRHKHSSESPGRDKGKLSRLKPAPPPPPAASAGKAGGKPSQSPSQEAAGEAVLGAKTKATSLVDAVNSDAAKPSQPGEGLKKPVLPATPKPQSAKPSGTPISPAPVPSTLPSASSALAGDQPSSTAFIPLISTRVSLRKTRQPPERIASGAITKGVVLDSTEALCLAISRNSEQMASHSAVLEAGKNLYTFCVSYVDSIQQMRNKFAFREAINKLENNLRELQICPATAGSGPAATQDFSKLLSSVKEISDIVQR

number of off-target kinases experimentally identified, In vitro binding (KinomeSCAN) (382 unique human kinases [1]): 0
SMILES: COc1c(C)cnc(Cn2cnc3c(Cl)nc(N)nc32)c1C [BIIB021]
pACT(exp) ([2]; Endoplasmin (P14625)): 6.8
pACT(exp) ([2]; Heat shock protein 75 kDa, mitochondrial (Q12931)): 7.1
pACT(exp) ([2]; Heat shock protein HSP 90-alpha (P07900)): 8.1
pACT(exp) ([2]; Heat shock protein HSP 90-beta (P08238)): 7.8

SMILES: CN(C)c1cc2c(cc1Sc1nc3c(N)nccc3n1CCNCC(C)(C)C)OCO2 [Debio-0932]
pActivity, HSP90AB1 (HSP90AB1): 7.42
% Enzyme Activity (relative to DMSO controls) (ABL2/ARG; ABL2/ARG): 106.65%
remaining activity at 10 µM (ABL2/ARG; read-out: % Enzyme Activity (relative to DMSO controls), ABL2/ARG): 107%
% Enzyme Activity (relative to DMSO controls) (ABL1; ABL1): 104.74%
remaining activity at 10 µM (ABL1; read-out: % Enzyme Activity (relative to DMSO controls), ABL1): 111%
% Enzyme Activity (relative to DMSO controls) (PASK; PASK): 102.33%
remaining activity at 10 µM (PASK; read-out: % Enzyme Activity (relative to DMSO controls), PASK): 101%
% Enzyme Activity (relative to DMSO controls) (TRKA; TRKA): 103.51%
remaining activity at 10 µM (TRKA; read-out: % Enzyme Activity (relative to DMSO controls), TRKA): 104%
% Enzyme Activity (relative to DMSO controls) (FYN; FYN): 102.22%
remaining activity at 10 µM (FYN; read-out: % Enzyme Activity (relative to DMSO controls), FYN): 103%
pActivity, TRAP1 (TRAP1): 5.8
number of off-target kinases experimentally identified, In vitro binding (KinomeSCAN) (382 unique human kinases [1]): 0
% Enzyme Activity (relative to DMSO controls) (YES/YES1; YES/YES1): 102.37%
remaining activity at 10 µM (YES/YES1; read-out: % Enzyme Activity (relative to DMSO controls), YES/YES1): 96%
% Enzyme Activity (relative to DMSO controls) (FGR; FGR): 101.88%
remaining activity at 10 µM (FGR; read-out: % Enzyme Activity (relative to DMSO controls), FGR): 102%
% Enzyme Activity (relative to DMSO controls) (c-Src; c-Src): 109.48%
remaining activity at 10 µM (c-Src; read-out: % Enzyme Activity (relative to DMSO controls), c-Src): 107%
% Enzyme Activity (relative to DMSO controls) (PDK2/PDHK2; PDK2/PDHK2): 100.31%
remaining activity at 10 µM (PDK2/PDHK2; read-out: % Enzyme Activity (relative to DMSO controls), PDK2/PDHK2): 108%
% Enzyme Activity (relative to DMSO controls) (BLK; BLK): 109.86%
remaining activity at 10 µM (BLK; read-out: % Enzyme Activity (relative to DMSO controls), BLK): 110%
% Enzyme Activity (relative to DMSO controls) (LYN B; LYN B): 101.36%
remaining activity at 10 µM (LYN B; read-out: % Enzyme Activity (relative to DMSO controls), LYN B): 101%
% Enzyme Activity (relative to DMSO controls) (PDK4/PDKH4; PDK4/PDKH4): 111.02%
remaining activity at 10 µM (PDK4/PDKH4; read-out: % Enzyme Activity (relative to DMSO controls), PDK4/PDKH4): 111%
% Enzyme Activity (relative to DMSO controls) (TRKC; TRKC): 97.21%
remaining activity at 10 µM (TRKC; read-out: % Enzyme Activity (relative to DMSO controls), TRKC): 93.3%
% Enzyme Activity (relative to DMSO controls) (DDR1; DDR1): 85.1%
remaining activity at 10 µM (DDR1; read-out: % Enzyme Activity (relative to DMSO controls), DDR1): 94.8%
% Enzyme Activity (relative to DMSO controls) (PEAK1; PEAK1): 103.94%
remaining activity at 10 µM (PEAK1; read-out: % Enzyme Activity (relative to DMSO controls), PEAK1): 104%
% Enzyme Activity (relative to DMSO controls) (LCK; LCK): 109.56%
remaining activity at 10 µM (LCK; read-out: % Enzyme Activity (relative to DMSO controls), LCK): 110%
activity against the 16-kinase panel (16-kinase panel): inactive
pActivity, HSP90AA1 (HSP90AA1): 7.48

SMILES: Cn1cc(-c2ccc3c(c2)CCN3C(=O)Cc2cccc(C(F)(F)F)c2)c2c(N)ncnc21 [GSK-2606414]
IC50 (382 unique human kinases [3]): 92.1 nM

SMILES: c1ccc2c(-c3cnn4cc(-c5ccc(N6CCNCC6)cc5)cnc34)ccnc2c1 [LDN193189]
IC50 (382 unique human kinases [4]): 165 nM

SMILES: CCCCCCCCCCCCCCCCn1cc[n+](Cc2ccccc2)c1C [NH125]
IC50 (382 unique human kinases [5]): 9950 nM
